How the values were obtained:
human NLRP3 [1] = biological target: T1, human NLRP3 (Homo sapiens, UniProt Q96P20); assay: Scintillation Proximity (SPA) NLRP3 Assay, displacement of 3H-MCC950; format: binding; conditions: for IC50: displacement of 3H-MCC950 from human NLRP3
Procedure, shortened: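 Human NLRP3 (350 nM) preincubated 15 min at RT with compound (5% DMSO final) in HEPES pH 7.5 buffer with 100 μM ADP, then 125 nM 3H-MCC950 added for 60 min. Copper PVT SPA beads added; counts read 6 h later. Specific binding = signal minus no-protein wells, duplicates averaged; IC50 reported.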

human NLRP3 [2] = biological target: T1, human NLRP3; assay: Human Whole Blood (hWB) NLRP3 Assay (LPS/ATP, IL-1β); format: cell-based; parameters: host or cells: human whole blood from healthy volunteers (A3)
Procedure, shortened: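 Heparinized healthy-donor human whole blood primed with LPS 1 μg/ml for 4.5 h, with compound added 30 min before ATP activation, or compound added 30 min before 5 h LPS priming. ATP stimulation for 30 min at 37 °C, then plasma IL-1β measured by MSD immunoassay to give IC50.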

T1 sequence (Q96P20 whole entry): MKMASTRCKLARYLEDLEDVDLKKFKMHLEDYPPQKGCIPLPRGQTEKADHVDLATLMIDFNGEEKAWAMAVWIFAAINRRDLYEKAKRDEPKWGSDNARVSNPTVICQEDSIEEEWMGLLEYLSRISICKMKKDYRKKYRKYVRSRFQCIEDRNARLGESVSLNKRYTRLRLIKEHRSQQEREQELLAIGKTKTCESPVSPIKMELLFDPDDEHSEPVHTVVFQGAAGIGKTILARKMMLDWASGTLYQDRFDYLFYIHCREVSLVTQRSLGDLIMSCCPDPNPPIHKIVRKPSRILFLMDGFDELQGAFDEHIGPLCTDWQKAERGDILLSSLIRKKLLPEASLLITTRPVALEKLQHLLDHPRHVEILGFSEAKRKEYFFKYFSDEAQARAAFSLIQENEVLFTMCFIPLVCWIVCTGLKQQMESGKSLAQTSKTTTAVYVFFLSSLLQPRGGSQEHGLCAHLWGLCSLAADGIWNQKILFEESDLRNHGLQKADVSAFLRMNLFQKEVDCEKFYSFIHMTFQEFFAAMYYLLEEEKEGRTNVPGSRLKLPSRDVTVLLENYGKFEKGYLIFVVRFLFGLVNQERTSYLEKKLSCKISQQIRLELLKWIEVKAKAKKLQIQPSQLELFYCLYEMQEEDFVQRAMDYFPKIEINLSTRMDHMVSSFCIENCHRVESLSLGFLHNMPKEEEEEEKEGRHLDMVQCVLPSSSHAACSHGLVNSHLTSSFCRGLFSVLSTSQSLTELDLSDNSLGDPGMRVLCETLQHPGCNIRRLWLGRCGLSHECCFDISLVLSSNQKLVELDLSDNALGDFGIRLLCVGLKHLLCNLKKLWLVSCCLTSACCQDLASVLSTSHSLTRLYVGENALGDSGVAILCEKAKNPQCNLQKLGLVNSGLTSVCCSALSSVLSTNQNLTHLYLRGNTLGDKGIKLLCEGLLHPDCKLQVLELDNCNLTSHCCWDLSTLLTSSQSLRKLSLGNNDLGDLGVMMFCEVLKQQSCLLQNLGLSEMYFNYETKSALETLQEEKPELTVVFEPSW

| IC50 (human NLRP3 [1]; Table B, activity class) | IC50 (human NLRP3 [1]; Table C) | IC50 (human NLRP3 [2]; Table B, activity class) | IC50 (human NLRP3 [2]; Table C) | fold increase in binding activity (SPA IC50) (human NLRP3 [1]; relative to Compound 39A) | fold improvement in binding activity (SPA IC50) (human NLRP3 [1]; relative to Comparative Example B1) | Compound |
| --- | --- | --- | --- | --- | --- | --- |
| < 1000 nM | 200 nM | < 1000 nM | 300 nM | – | – | C[C@@H]1CCN(c2nnn[nH]2)C[C@H](NC(=O)N(C)c2ccc(OC(F)(F)F)cc2)C1 (single isomer, unassigned) [10A*] |
| < 1000 nM | 140 nM | < 1000 nM | 58 nM | 5.9 fold | – | C[C@@H]1CCN(c2nnn[nH]2)C[C@H](NC(=O)N(C)c2ccc(OC(F)F)cc2)C1 (single isomer, unassigned) [11A*] |
| < 1000 nM | 96 nM | < 1000 nM | 150 nM | – | > 1950 fold | C[C@@H]1CCN(c2nnn[nH]2)C[C@H](NC(=O)N(C)c2ccc(Cl)cc2)C1 (single isomer, unassigned) [4A*] |
